Values quoted from earlier work, collected in patent publication US4339582A (priority 1981, dated 1982).

Settings: literature, J. Med. Chem. 18, 1126-30 (1975)

## c1ccc(C2CCC3CCCCN3C2)cc1 (stereo not shown)
  reported activity: antidepressant activity
